Source: article PMC9574929, “Development of Hydrogen Sulfide-Releasing Carbonic Anhydrases IX- and XII-Selective Inhibitors with Enhanced Antihyperalgesic Action in a Rat Model of Arthritis” (Journal of Medicinal Chemistry, 2022)

Legend:
hCA I = hCA I (Homo sapiens, UniProt P00915); assay: Stopped-flow CO2 hydrase assay, hCA I
Method: (§1) The uncatalyzed rates were determined in the same manner and subtracted from the total observed rates. Stock solutions of inhibitor (0.1 mM) were prepared in distilled-deionized water and dilutions up to 0.01 nM were done thereafter with the assay buffer. […] The inhibition constants were obtained by nonlinear least-squares methods using PRISM 3 and the Cheng–Prusoff equation, as reported earlier,[39] and represent the mean from at least three different determinations.

hCA II = hCA II (Homo sapiens, UniProt P00918); assay: Stopped-flow CO2 hydrase assay, hCA II; details: for SI CA I/II: selectivity index, ratio of KIs
Method: as §1

hCA IV = hCA IV (Homo sapiens, UniProt P22748); assay: Stopped-flow CO2 hydrase assay, hCA IV; details: for SI CA I/IV / SI CA II/IV: selectivity index, ratio of KIs
hCA IV, sequence (P22748 19-312): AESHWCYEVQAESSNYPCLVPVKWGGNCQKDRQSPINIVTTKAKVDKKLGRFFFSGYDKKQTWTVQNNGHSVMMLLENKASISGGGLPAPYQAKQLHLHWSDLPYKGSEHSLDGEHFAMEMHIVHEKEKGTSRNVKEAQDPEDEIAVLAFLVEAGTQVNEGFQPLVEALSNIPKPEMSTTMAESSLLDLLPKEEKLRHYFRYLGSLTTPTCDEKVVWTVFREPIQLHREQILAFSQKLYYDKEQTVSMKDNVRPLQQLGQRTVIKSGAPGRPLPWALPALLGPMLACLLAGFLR
Method: as §1

hCA IX = hCA IX (Homo sapiens, UniProt Q16790); assay: Stopped-flow CO2 hydrase assay, hCA IX; details: for SI CA I/IX / SI CA II/IX: selectivity index, ratio of KIs
Method: as §1

hCA XII = hCA XII (Homo sapiens, UniProt O43570); assay: Stopped-flow CO2 hydrase assay, hCA XII; details: for SI CA I/XII / SI CA II/XII: selectivity index, ratio of KIs
hCA XII, sequence (O43570 25-354): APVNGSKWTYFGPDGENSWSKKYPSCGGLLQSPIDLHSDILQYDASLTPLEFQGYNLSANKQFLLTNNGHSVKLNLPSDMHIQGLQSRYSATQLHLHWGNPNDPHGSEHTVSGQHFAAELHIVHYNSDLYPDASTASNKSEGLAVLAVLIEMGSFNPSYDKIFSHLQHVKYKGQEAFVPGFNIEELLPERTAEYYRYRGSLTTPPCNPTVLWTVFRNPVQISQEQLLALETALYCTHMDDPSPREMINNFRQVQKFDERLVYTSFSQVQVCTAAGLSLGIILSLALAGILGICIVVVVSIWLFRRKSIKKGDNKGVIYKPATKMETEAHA
Method: as §1

hCA I, sequence (P00915 whole entry): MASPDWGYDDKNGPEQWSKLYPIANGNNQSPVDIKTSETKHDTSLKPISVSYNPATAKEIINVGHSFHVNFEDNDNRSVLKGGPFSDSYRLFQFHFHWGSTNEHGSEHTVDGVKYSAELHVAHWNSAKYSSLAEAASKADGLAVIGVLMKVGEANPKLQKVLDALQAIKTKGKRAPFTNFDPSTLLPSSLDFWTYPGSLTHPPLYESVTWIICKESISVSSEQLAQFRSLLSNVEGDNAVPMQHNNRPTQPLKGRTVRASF

Row | SMILES | Ki (hCA I) [nM] | Ki (hCA II) [nM] | SI CA I/II (hCA II) | Ki (hCA IV) [nM] | SI CA I/IV (hCA IV) | SI CA II/IV (hCA IV) | Ki (hCA IX) [nM] | SI CA I/IX (hCA IX) | SI CA II/IX (hCA IX) | Ki (hCA XII) [nM] | SI CA I/XII (hCA XII) | SI CA II/XII (hCA XII) | melting point [°C]
1 | NS(=O)(=O)c1ccc(CCNCc2ccc(Br)cc2)cc1 [Compound 7, 4-(2-((4-Bromobenzyl)amino)ethyl)benzenesulfonamide] | 214 | 189 | 1.1 | 5240 | 0.04 | 0.04 | 86.4 | 2.5 | 2.2 | 83.6 | 2.6 | 2.3 | 
2 | N#Cc1ccc(CNCCc2ccc(S(N)(=O)=O)cc2)cc1 [Compound 8, 4-(2-((4-Cyanobenzyl)amino)ethyl)benzenesulfonamide] | 91.4 | 70.2 |  | 1780 |  |  |  |  |  | 52.9 |  |  | 
3 | COc1cc([N+](=O)[O-])ccc1CNCCc1ccc(S(N)(=O)=O)cc1 [Compound 11, 4-(2-((2-Methoxy-4-nitrobenzyl)amino)ethyl)benzenesulfonamide] | 145 |  |  | 1860 |  |  |  |  |  |  |  |  | 
4 | COc1ccc(CNCCc2ccc(S(N)(=O)=O)cc2)cc1 [Compound 12, 4-(2-((4-Methoxybenzyl)amino)ethyl)benzenesulfonamide] | 97.2 |  |  | 1450 |  |  |  |  |  | 57.2 |  |  | 
5 | CSc1ccc(CNCCc2ccc(S(N)(=O)=O)cc2)cc1 [Compound 14, 4-(2-((4-(Methylthio)benzyl)amino)ethyl)benzenesulfonamide] | 122 |  |  | 2130 |  |  | 112 |  |  | 88.6 |  |  | 
6 | NS(=O)(=O)c1ccc(CCN(Cc2ccc(Br)cc2)C(=O)c2ccc(-c3cssc3=S)cc2)cc1 [Compound 22, N-(4-Bromobenzyl)-N-(4-sulfamoylphenethyl)-4-(3-thioxo-3H-1,2-dithiol-4-yl)benzamide] |  |  |  |  | 7.4 | 3.5 |  | 403 | 192 |  | 597 | 284 | 65 to 66
7 | CN(C)c1ccc(CN(CCc2ccc(S(N)(=O)=O)cc2)C(=O)c2ccc(-c3cssc3=S)cc2)cc1 [Compound 24, N-(4-(Dimethylamino)benzyl)-N-(4-sulfamoylphenethyl)-4-(3-thioxo-3H-1,2-dithiol-4-yl)benzamide] |  |  |  |  | 1.2 | 0.3 |  | 188 | 43.9 |  | 448 | 105 | 185 to 186
8 | NS(=O)(=O)c1ccc(CCN(Cc2ccc([N+](=O)[O-])cc2)C(=O)c2ccc(-c3cssc3=S)cc2)cc1 [Compound 25, N-(4-Nitrobenzyl)-N-(4-sulfamoylphenethyl)-4-(3-thioxo-3H-1,2-dithiol-4-yl)benzamide] |  |  |  |  | <0.7 | <0.09 |  | 204 | 25.1 |  | 226 | 27.9 | 223 to 224
9 | COc1ccc(CN(CCc2ccc(S(N)(=O)=O)cc2)C(=O)c2ccc(-c3cssc3=S)cc2)cc1 [Compound 27, N-(4-Methoxybenzyl)-N-(4-sulfamoylphenethyl)-4-(3-thioxo-3H-1,2-dithiol-4-yl)benzamide] |  |  |  |  | 1.4 | 0.4 |  | 44.0 | 11.7 |  | 29.0 | 7.7 | 151 to 152
10 | N#CCCN(CCc1ccc(S(N)(=O)=O)cc1)C(=O)c1ccc(-c2cssc2=S)cc1 [Compound 33, N-(2-Cyanoethyl)-N-(4-sulfamoylphenethyl)-4-(3-thioxo-3H-1,2-dithiol-4-yl)benzamide] |  |  |  |  | 0.8 | 0.11 |  | 15.0 | 2.1 |  | 45.2 | 6.4 | 

Next, values leading:

Row | Ki (hCA I) [nM] | Ki (hCA II) [nM] | SI CA I/II (hCA II) | Ki (hCA IV) [nM] | SI CA I/IV (hCA IV) | SI CA II/IV (hCA IV) | Ki (hCA IX) [nM] | SI CA I/IX (hCA IX) | SI CA II/IX (hCA IX) | Ki (hCA XII) [nM] | SI CA I/XII (hCA XII) | SI CA II/XII (hCA XII) | melting point [°C] | SMILES
11 | 136 | 115 | 1.2 | 3680 | 0.04 | 0.03 | 67.4 | 2.0 | 1.7 | 75.2 | 1.8 | 1.5 |  | NS(=O)(=O)c1ccc(CCNCc2ccc(Cl)cc2)cc1 [Compound 6, 4-(2-((4-Chlorobenzyl)amino)ethyl)benzenesulfonamide]
12 |  |  |  | 961 |  |  |  |  |  |  |  |  |  | CN(C)c1ccc(CNCCc2ccc(S(N)(=O)=O)cc2)cc1 [Compound 9, 4-(2-((4-(Dimethylamino)benzyl)amino)ethyl)benzenesulfonamide]
13 | 88.6 | 75.2 | 1.2 | 1100 |  | 0.07 | 103 | 0.9 | 0.7 | 51 | 0.9 | 1.5 |  | COc1ccc(CNCCc2ccc(S(N)(=O)=O)cc2)cc1OC [Compound 13, 4-(2-((3,4-Dimethoxybenzyl)amino)ethyl)benzenesulfonamide]
14 | 374 | 202 | 1.9 | 7240 | 0.05 | 0.03 | 70.5 | 5.3 | 2.8 | 69.8 | 5.3 | 2.8 |  | NS(=O)(=O)c1ccc(CCNCc2csc3ccccc23)cc1 [Compound 16, 4-(2-((Benzo[b]thiophen-3-ylmethyl)amino)ethyl)benzenesulfonamide]
15 | 771 to 890 |  |  |  | 0.18 | 0.11 |  | 19.2 | 11.1 |  | 79.4 | 49.5 | 139 to 140 | NS(=O)(=O)c1ccc(CCN(Cc2ccccc2)C(=O)c2ccc(-c3cssc3=S)cc2)cc1 [Compound 19, N-Benzyl-N-(4-sulfamoylphenethyl)-4-(3-thioxo-3H-1,2-dithiol-4-yl)benzamide]
16 |  |  |  |  | <0.53 | <0.06 |  | 115 | 13.0 |  | 81.5 | 9.2 | 158 to 159 | NS(=O)(=O)c1ccc(CCN(Cc2ccc(F)cc2)C(=O)c2ccc(-c3cssc3=S)cc2)cc1 [Compound 20, N-(4-Fluorobenzyl)-N-(4-sulfamoylphenethyl)-4-(3-thioxo-3H-1,2-dithiol-4-yl)benzamide]
17 |  |  |  |  | 12.8 | 6.9 |  | 229 | 124 |  | 561 | 303 | 104 to 105 | NS(=O)(=O)c1ccc(CCN(Cc2ccc(Cl)cc2)C(=O)c2ccc(-c3cssc3=S)cc2)cc1 [Compound 21, N-(4-Chlorobenzyl)-N-(4-sulfamoylphenethyl)-4-(3-thioxo-3H-1,2-dithiol-4-yl)benzamide]
18 |  |  |  |  | >216.4 | 104 |  | >248 | 120 |  | >1136 | 548 | 251 to 252 | N#Cc1ccc(CN(CCc2ccc(S(N)(=O)=O)cc2)C(=O)c2ccc(-c3cssc3=S)cc2)cc1 [Compound 23, N-(4-Cyanobenzyl)-N-(4-sulfamoylphenethyl)-4-(3-thioxo-3H-1,2-dithiol-4-yl)benzamide]
19 | 771 to 890 |  |  |  | 3.0 | 0.7 |  | 47.9 | 11.7 |  | 105 | 25.7 | 183 to 184 | COc1ccc(CN(CCc2ccc(S(N)(=O)=O)cc2)C(=O)c2ccc(-c3cssc3=S)cc2)cc1OC [Compound 28, N-(3,4-Dimethoxybenzyl)-N-(4-sulfamoylphenethyl)-4-(3-thioxo-3H-1,2-dithiol-4-yl)benzamide]
20 |  |  |  |  | 18.0 | 2.7 |  | 34.9 | 5.3 |  | 462 | 69.6 | 228 to 229 | NS(=O)(=O)c1ccc(CCN(CCc2ccccc2)C(=O)c2ccc(-c3cssc3=S)cc2)cc1 [Compound 32, N-Phenethyl-N-(4-sulfamoylphenethyl)-4-(3-thioxo-3H-1,2-dithiol-4-yl)benzamide]
